Key:
[1] = target: T1, Amine oxidase [flavin-containing] A (Homo sapiens, UniProt P21397); test: Inhibition of human recombinant MAO-A
T1 sequence (P21397 whole entry): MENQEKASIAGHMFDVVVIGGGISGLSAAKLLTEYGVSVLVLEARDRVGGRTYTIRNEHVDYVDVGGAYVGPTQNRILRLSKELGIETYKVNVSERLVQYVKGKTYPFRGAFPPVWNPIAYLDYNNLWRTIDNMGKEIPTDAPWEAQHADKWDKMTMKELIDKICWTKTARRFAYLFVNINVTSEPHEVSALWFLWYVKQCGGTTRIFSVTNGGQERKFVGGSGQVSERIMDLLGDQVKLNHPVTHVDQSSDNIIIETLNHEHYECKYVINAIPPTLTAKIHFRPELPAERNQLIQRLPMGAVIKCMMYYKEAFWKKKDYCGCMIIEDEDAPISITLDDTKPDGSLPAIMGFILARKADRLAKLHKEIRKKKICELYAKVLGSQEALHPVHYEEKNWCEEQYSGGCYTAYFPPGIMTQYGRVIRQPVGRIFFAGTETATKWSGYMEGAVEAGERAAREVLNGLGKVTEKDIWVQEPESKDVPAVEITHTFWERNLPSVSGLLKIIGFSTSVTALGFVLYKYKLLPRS

[2] = target: T2, Amine oxidase [flavin-containing] B (Homo sapiens, UniProt P27338); test: Inhibition of human recombinant MAO-B
T2 sequence (P27338 whole entry): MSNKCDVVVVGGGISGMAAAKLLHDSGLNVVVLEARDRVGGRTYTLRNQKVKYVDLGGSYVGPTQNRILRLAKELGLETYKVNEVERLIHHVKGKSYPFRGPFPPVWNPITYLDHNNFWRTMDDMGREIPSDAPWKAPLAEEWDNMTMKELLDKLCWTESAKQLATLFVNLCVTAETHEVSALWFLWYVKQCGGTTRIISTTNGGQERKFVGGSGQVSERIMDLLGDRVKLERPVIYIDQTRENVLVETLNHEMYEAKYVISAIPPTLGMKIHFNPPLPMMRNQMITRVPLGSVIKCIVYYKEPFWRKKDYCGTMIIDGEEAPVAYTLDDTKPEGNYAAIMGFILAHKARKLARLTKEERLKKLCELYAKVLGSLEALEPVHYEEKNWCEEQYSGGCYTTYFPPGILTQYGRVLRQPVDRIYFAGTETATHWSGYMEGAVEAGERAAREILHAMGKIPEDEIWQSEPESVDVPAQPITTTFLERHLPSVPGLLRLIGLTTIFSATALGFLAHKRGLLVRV

[3] = Selectivity index, ratio of IC50 for human recombinant MAO-A to IC50 for human recombinant MAO-B
[4] = Antioxidant activity assessed as trolox equivalent of ORAC radical scavenging activity by ORAC-FL assay relative to trolox; type: functional
[5] = target: Amyloid-beta precursor protein (Homo sapiens) (UniProt P05067); test: Inhibition of self-induced amyloid beta (1 to 42) (unknown origin) aggregation at 25 uM by ThT fluorescence assay
[6] = target: Amyloid-beta precursor protein (Homo sapiens) (UniProt P05067); test: Disaggregation of self-induced amyloid beta (1 to 42) (unknown origin) preformed fibrils at 25 uM by ThT fluorescence assay
[7] = target: Amyloid-beta precursor protein (Homo sapiens) (UniProt P05067); test: Inhibition of Cu2+-induced amyloid beta (1 to 42) (unknown origin) aggregation at 25 uM by ThT fluorescence assay
[8] = target: Amyloid-beta precursor protein (Homo sapiens) (UniProt P05067); test: Disaggregation of Cu2+-induced amyloid beta (1 to 42) (unknown origin) preformed fibrils at 25 uM by ThT fluorescence assay
MAO-A = target: T3, MAO-A (Homo sapiens, UniProt P21397); test: Inhibition of human recombinant MAO-A at 10 uM
T3 sequence (P21397 whole entry): T1 sequence (P21397 whole entry)

Amyloid-beta precursor protein (Homo sapiens), sequence (P05067 whole entry): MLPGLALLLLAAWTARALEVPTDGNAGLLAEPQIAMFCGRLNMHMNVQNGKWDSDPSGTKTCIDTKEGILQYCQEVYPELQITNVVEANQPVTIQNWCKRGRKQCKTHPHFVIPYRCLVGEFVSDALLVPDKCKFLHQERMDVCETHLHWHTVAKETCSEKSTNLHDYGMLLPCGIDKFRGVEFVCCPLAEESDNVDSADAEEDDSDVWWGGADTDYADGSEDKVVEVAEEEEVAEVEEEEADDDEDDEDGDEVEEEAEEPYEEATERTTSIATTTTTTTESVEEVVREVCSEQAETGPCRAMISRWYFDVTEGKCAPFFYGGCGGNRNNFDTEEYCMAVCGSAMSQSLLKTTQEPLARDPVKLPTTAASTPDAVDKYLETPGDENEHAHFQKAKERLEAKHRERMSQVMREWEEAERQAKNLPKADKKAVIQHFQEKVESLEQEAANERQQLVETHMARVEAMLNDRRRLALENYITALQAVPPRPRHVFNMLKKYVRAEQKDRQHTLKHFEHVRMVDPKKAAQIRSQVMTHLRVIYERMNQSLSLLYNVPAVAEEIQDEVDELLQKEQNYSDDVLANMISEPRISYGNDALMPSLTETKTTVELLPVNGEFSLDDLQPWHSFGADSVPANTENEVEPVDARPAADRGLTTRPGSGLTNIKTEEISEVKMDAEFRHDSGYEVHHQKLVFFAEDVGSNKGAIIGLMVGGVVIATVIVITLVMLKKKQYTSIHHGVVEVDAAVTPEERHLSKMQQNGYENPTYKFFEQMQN

Row | SMILES | IC50 [1] | IC50 [2] | Ratio IC50 [3] | Ratio [4] | inhibition [5] | Activity [6] | inhibition [7] | Activity [8] | inhibition at 10 µM (MAO-A) | inhibition ([5]; tested as the 2H-labelled form) | Activity ([6]; tested as the 2H-labelled form)
1 | CCCCC1OC(=O)c2cc(N3N=C(c4cc(OC)ccc4O)CC3=O)ccc21 (stereo not drawn) | > 10 µM | 3.88 µM | > 2.6 | 2.28 equiv | 78% | 59.9% | 71% | 69.1% | 2.97% |  | 
2 | O=C1OCc2ccc(N3N=C(c4ccccc4O)CC3=O)cc21 | > 10 µM | 0.22 µM | > 45.5 | 1.38 equiv | 33.5% | 28.1% |  |  | 23.2% |  | 
3 | O=C1OCc2ccc(N3N=C(c4cc(F)ccc4O)CC3=O)cc21 | > 10 µM | 0.56 µM | > 17.9 | 1.25 equiv | 46.1% | 41.1% | 44.7% | 42.8% | 24.2% |  | 
4 | CCCCC1OC(=O)c2cc(N3N=C(c4cc(Cl)ccc4O)CC3=O)ccc21 (stereo not drawn) | > 10 µM | 7.62 µM | > 1.3 | 1.32 equiv | 85.1% | 49.9% | 58.8% | 74.6% | 14.1% |  | 
5 | C[C@H](NCc1ccc(OCc2cccc(F)c2)cc1)C(N)=O [SAFINAMIDE] |  |  |  |  |  |  |  |  | 9.67% |  | 
6 | CCCCC1OC(=O)c2cc(N3N=C(c4cc([N+](=O)[O-])ccc4O)CC3=O)ccc21 (stereo not drawn) | > 10 µM | 9.26 µM | > 1.1 | 0.73 equiv | 68.8% | 57.2% | 66.1% | 61.8% | 8.48% |  | 
7 | CCCCC1OC(=O)c2cc(N3N=C(c4ccc(Br)cc4O)CC3=O)ccc21 (stereo not drawn) | > 10 µM | 12.3 µM | > 0.8 | 1.22 equiv | 65.6% | 54.1% | 69.4% | 66% | 14.8% |  | 
8 | CCCCCCC1OC(=O)c2cc(N3N=C(c4ccccc4O)CC3=O)ccc21 (stereo not drawn) | > 10 µM | 3.79 µM | > 2.6 | 1.33 equiv | 50.3% | 59.5% | 43.8% | 66.7% | 21.7% |  | 
9 | O=C1OCc2ccc(N3N=C(c4cccc(F)c4O)CC3=O)cc21 | > 10 µM | 0.9 µM | > 11.1 | 1.1 equiv | 21.3% | 8.27% |  |  | 21% |  | 
10 | COc1cc(/C=C/C(=O)CC(=O)/C=C/c2ccc(O)c(OC)c2)ccc1O |  |  |  |  |  | 35.8% |  |  |  |  | 
11 | CCCCC1OC(=O)c2cc(-n3nc(-c4ccccc4O)cc3C)ccc21 (stereo not drawn) | > 10 µM | > 10 µM |  | 1.38 equiv | 19.3% | 8.11% |  |  | 20.4% |  | 
12 | CCCCCCCC1OC(=O)c2cc(N3N=C(c4ccccc4O)CC3=O)ccc21 (stereo not drawn) | > 10 µM | 11.4 µM | > 0.9 | 1.38 equiv | 57.8% | 68.6% | 44.1% | 71.7% | 14.5% |  | 
13 | CCCCC1OC(=O)c2cc(N3N=C(c4cc(N(C)C)ccc4O)CC3=O)ccc21 (stereo not drawn) | > 10 µM | 6.2 µM | > 1.6 | 2.58 equiv | 60.6% | 51% | 63.8% | 55.7% | 1.6% |  | 
14 | CCCCC1OC(=O)c2cc(N3N=C(c4cc(C)ccc4O)CC3=O)ccc21 (stereo not drawn) | > 10 µM | 7.35 µM | > 1.4 | 1.6 equiv | 54.4% | 24.7% | 61.2% |  | 5.2% |  | 
15 | CCCCCCCC1OC(=O)c2cc(N3N=C(c4cc(OC)ccc4O)CC3=O)ccc21 (stereo not drawn) | > 10 µM | 2.87 µM | > 3.5 | 1.82 equiv | 45.4% | 31.1% | 63.1% | 60.7% | 8.73% |  | 
16 | [2H]C1OC(=O)c2cc(N3N=C(C)CC3=O)ccc21 (stereo not drawn) | 6.78 µM | 4.36 µM |  |  |  |  |  |  |  |  | 
17 | CCCCC1OC(=O)c2cc(N3N=C(c4ccccc4O)CC3=O)ccc21 (stereo not drawn) | > 10 µM | > 10 µM |  | 1.55 equiv | 70.9% | 65% | 75.3% | 76.4% | 25.6% |  | 
18 | CCCCC1OC(=O)c2cc(N3N=C(c4cccc(Br)c4O)CC3=O)ccc21 (stereo not drawn) | > 10 µM | 10.5 µM | > 1 | 1.15 equiv | 75.5% | 67.4% | 50.6% | 62.8% | 13% |  | 
19 | CCCCC1OC(=O)c2cc(N3N=C(c4cc(Cl)cc(Cl)c4O)CC3=O)ccc21 (stereo not drawn) | > 10 µM | 5.53 µM | > 1.8 | 0.97 equiv | 55.1% | 78.3% | 70.3% | 77.7% | 1.11% |  | 
20 | CCCCC1OC(=O)c2cc(N3N=C(c4cccc(F)c4O)CC3=O)ccc21 (stereo not drawn) | > 10 µM | > 10 µM |  | 1.07 equiv | 67% | 42.6% | 75.9% | 54.6% | 7.96% |  | 
21 | CC1=NN(c2ccc3c(c2)C(=O)OC3)C(=O)C1 |  |  | 1.6 | 1.18 equiv |  |  |  |  |  | 71.5% | 28.6%
22 | CCCCC1OC(=O)c2cc(N3N=C(c4ccc(N(C)C)cc4O)CC3=O)ccc21 (stereo not drawn) | > 10 µM | 5.07 µM | > 2 | 1.84 equiv | 24.9% | 7.68% |  |  | 9.51% |  | 

Source: ChEMBL document CHEMBL5620344, “Discovery of novel 5-(2-hydroxyphenyl)-2-phthalide-3(3H)-pyrazolones as balanced multifunctional agents against Alzheimer's disease” (Eur J Med Chem, 2023)
